The values below are quoted from earlier work in patent US20160075995A1, “SWEAT GLAND-DERIVED STEM CELLS AND METHODS OF USE” (priority 2014, published 2016).

For series [1] the following is noted: DMSO.
The conditions of series [2]: published reports.

Regarding `c1cc(-c2cnn3cc(-c4ccc(OCCN5CCCCC5)cc4)cnc23)ccn1` [dorsomorphin], the solubility entry in series [1] was “soluble in DMSO”. The toxicity entry in series [2] is on record as “low toxicity”.
